Values of other authors in patent publication US20070183984A1, “CALCIUM PHOSPHATE SALTS IN ORAL COMPOSITIONS SUITABLE AS A TOOTH REMINERALIZING AGENT” (WM. WRIGLEY JR. COMPANY, priority 2006, published 2007).

Details: octanol/water partition coefficient

Log Pow | Molecule
0.08 | O=C(O)CCCCC(=O)O [adipic acid]
−1.26 | O=C(O)CC(O)C(=O)O (stereo not drawn) [malic acid]

Details: g in about 100 ml of water at about 20° C.

solubility in water | Molecule
about 0.6% | O=C(O)/C=C/C(=O)O [fumaric acid]
about 55% | O=C(O)CC(O)C(=O)O (stereo not drawn) [malic acid]
about 5% | polyaspartic acid
about 5% | polyglutamic acid
